Results taken from US20240382487A1, “NOVEL COPI/ARF1-LIPOLYSIS PATHWAY INHIBITOR AND COMPOUND FOR ERADICATING CANCER STEM CELLS AND INDUCING DAMP-MEDIATED ANTI-TUMOR IMMUNE RESPONSE” (FUDAN UNIVERSITY, priority 2020, published 2024).
Where two headings read alike, the source gives them in different places.

Tests used:
Arf1 = molecular target: T1, Arf1 (Homo sapiens, UniProt P84077); experiment: Active Arf1 Pull-Down and Detection Kit (GTP-bound Arf1); format: biochemical; conditions: liver cancer Huh-7 cell lysate; FIG. 1
T1 construct: Active Arf1 was detected by using The Thermo Scientific Pierce Active Arf1 Pull-Down and Detection Kit (Cat #16121) with liver cancer Huh-7 cell lysate; endogenous in cells; host or cells: Huh-7 liver cancer cells (lysate)
T1 sequence (P84077 whole entry): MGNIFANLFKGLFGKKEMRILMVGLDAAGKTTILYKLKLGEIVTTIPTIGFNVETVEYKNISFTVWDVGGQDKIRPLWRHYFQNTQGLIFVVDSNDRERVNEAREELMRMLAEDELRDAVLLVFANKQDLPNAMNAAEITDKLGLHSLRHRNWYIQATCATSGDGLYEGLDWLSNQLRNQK
Text: Active Arf1 was detected by using The Thermo Scientific Pierce Active Arf1 Pull-Down and Detection Kit (Cat #16121) with liver cancer Huh-7 cell lysate. It is a complete kit for selective enrichment and detection of GTP-bound Arf1 GTPase through specific protein interaction with the GGA3 protein-binding domain (FIG. 1).

CT-26 colon carcinoma = experiment: Drug-treated CT-26 cells in athymic nude mice; format: in vivo; parameters: unit not given here; conditions: cells treated with 10 μM Du 102
Description: The immunogenicity of the reagents can be tested in mouse vaccination models (Obeid et al., 2007; Sagiv barfi et al., 2018). One flank of the mouse was injected with drug treated tumor cells, followed one week later by a second injection of syngeneic tumor cells. We tested the vaccine efficacy in CT-26 colon cancer, B16-F10 melanoma, and 4T1 breast cancer treated with DMSO or du102.
Cells will be treated with 10 μM Du 102 or DMSO treated CT26, 4T1 and B16-F10 tumor cells (5×10^5\1×10^5 and 5×10^5, respectively) were subcutaneously inoculated into 6-week-old female mice. After 7 days, equal amounts of corresponding tumor cells were seeded to the right side. Tumor cell lines were mixed with Matrigel (GIBCO, cat s̆ 354234) or resuspended in PBS and injected subcutaneously or intradermally.

[1] = system: liver tumors in MYC-ON mice; experiment: MYC-ON liver tumor model; format: in vivo
Text: We used the Tet system to generate transgenic mice conditionally expressing the myc pro-oncogene in hepatocytes, […] myc/lap TTA (lt2-myc) (shachaf et al., 2004). We crossed tre-myc mice with a transgenic line, lap TTA. in which the liver activator protein (LAP) promoter drives the expression of tetracycline trans-activator protein (TTA) in hepatocytes. We confirmed this by discontinuing the feeding of doxycycline (myc-ON) activated myc transgene expression in 3-week-old mice. Subsequently. all transgenic mice overexpressing myc succumbed to liver tumors with a mean latency to tumor onset of 12 weeks, as previously reported (shachaf et al., 2004). In this lap TTA/tet-off myc conditional transgenic mouse model, myc overexpression in adult mice reproducibly induces liver cancer, similar to hepatocellular carcinoma and/or hepatoblastoma. The transgenic tumor invades the entire liver locally and is frequently associated with malignant peritoneal effusions that spread to the thoracic cavity by metastasis and invade the lung parenchyma.
For the mouse liver tumor model, mating cages and weaning cages were administrated by a grain based rodent diet (Bio-Serv. Cat #14-727-450) containing 200 mg/kg doxycycline, and the mice were induced tumors at 6 weeks of age, by changing to a normal diet. Mice were divided into three groups, control, Du 101 treated and du102 treated. The control group was given 100 by gavage using a feeding tube 100 μl/10 g body weight (BW) 20% DMSO+80% corn oil. Du 101 treated groups were treated with 25 mg/ml Du 101. The stock solution was diluted 1:4 with corn oil to make the working solution. Dul02 treatment groups were treated with 25 mg/ml du102 stock solution diluted 1:4 with corn oil to make working solutions. The mixed working solution was administered to mice by gavage using a feeding tube. Starting from the second week of myc-0n, 5 injections per week ([…]) were given for 4 weeks, mice were monitored every 2 days, and 10 weeks later mice were euthanized and analyzed for tumor growth.
For the myc-on liver tumor model, antibodies were i.p. Mg/kg) was injected once a week for 5 consecutive weeks, the first Doxycycline was discontinued weekly after injection. Antibodies used to treat mice were as follows: anti-CD4 (clone GK1.5, BioXcell, Cat #BE0003-1), anti-CD8 a (clone 2.43, BioXcell, Cat #BE0061) Or […] rat IgG (bioxcell, cat #be0094) isotype control antibody. From the second week of myc-on initiation lasted for 4 weeks, Du 102 and DMSO were administered by gavage needle as described above, mice were monitored every 2 days, and 10 weeks later mice were euthanized and analyzed for tumor growth.
For the myc-on liver tumor model, antibodies were i.p. Injection once a week for 5 weeks, and doxycycline was discontinued weekly after the first injection. Antibodies used to treat mice were as follows: 100 ug/mouse Armenian hamster anti mouse PD1 (J43, bioxcell, cat #be0033-2) and 100 ug/mouse Armenian hamster isotype IgG (bioxcell. cat #bp0091) was used as controls. For 4 weeks from the second week of myc-on, Du 102 and DMSO were administered by gavage needle as described above, mice were monitored every 2 days. and 10 weeks later mice were euthanized and analyzed for tumor growth. Coadministration of anti-PD-1 antibodies may allow the use of lower, less toxic doses of du102, thus avoiding known side effects.

lung cancer cells H460 = experiment: In vitro cell line screening, H460; format: cell-based
Text: (§1) In different tumor cytotoxicity experiments in vitro (FIG. 2-FIG. 7), including colorectal cancer cell lines HT29 and LoVo cells, liver cancer cell Huh7, lung cancer cells H460 and A549, the arf1 inhibitor could all inhibit tumor cell growth (FIG. 2-FIG. 6), and there was a dose-dependent manner (FIG. 7).

[2] = system: chemokines and T cell activation markers; experiment: Chemokines and T cell activation markers by quantitative RT-PCR in MYC-ON mice; format: in vivo
Description: Chemokines and T cell activation markers were measured by quantitative RT-PCR in DMSO or du102 treated MYC-ON mice. CD8 T cell infiltration and immunostimulatory cytokine expression were increased as measured by quantitative RT-PCR. […] CCL5 and CXCL10 chemokines stimulate CD4+ and CD8+ lymphocytes tumor infiltration (Parkes et al., 2017), and CXCL10 and CXCL11 are T cell associated chemokines.

[3] = system: colorectal cancer cell line HT29; experiment: In vitro cell line screening, HT29; format: cell-based
Text: as §1

mice = experiment: Toxicity in mice, oral gavage; format: in vivo; conditions: mouse, in vivo, po

Substance: 1H-indolo-5-carbaldehyde 5,6,7,8,9,10-hexahydrocycloocta[4,5]thieno[2,3-d]pyrimidin-4-ylhydrazone [Du 102]
- inhibition of arf1 activation (Arf1): potent inhibitors
- CT-26 colon carcinoma tumor in Athymic mice (CT-26 colon carcinoma; Day 0): 0
- CT-26 colon carcinoma tumor in Athymic mice (CT-26 colon carcinoma; Day 5): 0
- CT-26 colon carcinoma tumor in Athymic mice (CT-26 colon carcinoma; Day 10): 15
- CT-26 colon carcinoma tumor in Athymic mice (CT-26 colon carcinoma; Day 15): 117
- CT-26 colon carcinoma tumor in Athymic mice (CT-26 colon carcinoma; Day 20): 417
- CT-26 colon carcinoma tumor in Athymic mice (CT-26 colon carcinoma; Day 25): 859
- survival time of myc-on mice [1]: prolonged the survival time
- anti-tumor effects (liver tumors) ([1]; Du102 + Anti-CD4): 69.5
- anti-tumor effects (liver tumors) ([1]; Du102 + Anti-CD4/CD8): 89.7
- number of tumors ([1]; Du102 + Anti-PD-1): 4.4
- anti-tumor effects (liver tumors) ([1]; Du102 + Isotype, Table 18): 27.5
- number of tumors ([1]; Du102 + Isotype, Table 19): 42.3
- liver tumor numbers ([1]; gavage, 5 per week for 4 weeks, analyzed 10 weeks later): 26.7
- tumor suppressive effect (lung cancer cells H460): potency tumor suppressive effect
- tumor suppressive effect (lung cancer cells H460; listed as Dul02): effective tumor suppressive effects
- Ccl5 expression ([2]; DMSO 1.0): 2.4
- Col22 expression ([2]; DMSO 1.0): 2.5
- Cxcl11 expression ([2]; DMSO 1.0): 2.8
- GzmA expression ([2]; DMSO 1.0): 2.3
- GzmB expression ([2]; DMSO 1.0): 1.9
- IL-1β expression ([2]; DMSO 1.0): 2.5
- PD-L1 expression ([2]; DMSO 1.0): 0.4
- Perforin expression ([2]; DMSO 1.0): 2.2
- Cxcl10 expression ([2]; DMSO 1.1): 3.1
- INFγ expression ([2]; DMSO 1.1): 3.2
- tumor suppressive effect [3]: some tumor suppressive effect
- tumor suppressive effect ([3]; listed as Dul02): effective tumor suppressive effects
- toxic effects (mice): no toxic effects were observed
